These results are taken from patent publication US7928107B2, “Quinazolines useful as modulators of ion channels” (Vertex Pharmaceuticals Incorporated, priority 2004, dated 2011).

The experiment deals with NaV 1.8 channel (Homo sapiens, UniProt Q9Y5Y9). The experiment can be described thus: Activity against NaV 1.8 channel (optical membrane potential assay). The experiment is classed as cell-based. The method in brief: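 Cells expressing the NaV of interest loaded with CC2-DMPE (30 min, room temperature) then DiSBAC2(3) with ABSCl and veratridine; compound incubated 20–30 min. Depolarization triggered by sodium add-back and read on VIPR as 460/580 nm FRET ratio (Rf/Ri), normalized to tetracaine and untreated controls.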
NaV 1.8 channel, sequence (Q9Y5Y9 whole entry): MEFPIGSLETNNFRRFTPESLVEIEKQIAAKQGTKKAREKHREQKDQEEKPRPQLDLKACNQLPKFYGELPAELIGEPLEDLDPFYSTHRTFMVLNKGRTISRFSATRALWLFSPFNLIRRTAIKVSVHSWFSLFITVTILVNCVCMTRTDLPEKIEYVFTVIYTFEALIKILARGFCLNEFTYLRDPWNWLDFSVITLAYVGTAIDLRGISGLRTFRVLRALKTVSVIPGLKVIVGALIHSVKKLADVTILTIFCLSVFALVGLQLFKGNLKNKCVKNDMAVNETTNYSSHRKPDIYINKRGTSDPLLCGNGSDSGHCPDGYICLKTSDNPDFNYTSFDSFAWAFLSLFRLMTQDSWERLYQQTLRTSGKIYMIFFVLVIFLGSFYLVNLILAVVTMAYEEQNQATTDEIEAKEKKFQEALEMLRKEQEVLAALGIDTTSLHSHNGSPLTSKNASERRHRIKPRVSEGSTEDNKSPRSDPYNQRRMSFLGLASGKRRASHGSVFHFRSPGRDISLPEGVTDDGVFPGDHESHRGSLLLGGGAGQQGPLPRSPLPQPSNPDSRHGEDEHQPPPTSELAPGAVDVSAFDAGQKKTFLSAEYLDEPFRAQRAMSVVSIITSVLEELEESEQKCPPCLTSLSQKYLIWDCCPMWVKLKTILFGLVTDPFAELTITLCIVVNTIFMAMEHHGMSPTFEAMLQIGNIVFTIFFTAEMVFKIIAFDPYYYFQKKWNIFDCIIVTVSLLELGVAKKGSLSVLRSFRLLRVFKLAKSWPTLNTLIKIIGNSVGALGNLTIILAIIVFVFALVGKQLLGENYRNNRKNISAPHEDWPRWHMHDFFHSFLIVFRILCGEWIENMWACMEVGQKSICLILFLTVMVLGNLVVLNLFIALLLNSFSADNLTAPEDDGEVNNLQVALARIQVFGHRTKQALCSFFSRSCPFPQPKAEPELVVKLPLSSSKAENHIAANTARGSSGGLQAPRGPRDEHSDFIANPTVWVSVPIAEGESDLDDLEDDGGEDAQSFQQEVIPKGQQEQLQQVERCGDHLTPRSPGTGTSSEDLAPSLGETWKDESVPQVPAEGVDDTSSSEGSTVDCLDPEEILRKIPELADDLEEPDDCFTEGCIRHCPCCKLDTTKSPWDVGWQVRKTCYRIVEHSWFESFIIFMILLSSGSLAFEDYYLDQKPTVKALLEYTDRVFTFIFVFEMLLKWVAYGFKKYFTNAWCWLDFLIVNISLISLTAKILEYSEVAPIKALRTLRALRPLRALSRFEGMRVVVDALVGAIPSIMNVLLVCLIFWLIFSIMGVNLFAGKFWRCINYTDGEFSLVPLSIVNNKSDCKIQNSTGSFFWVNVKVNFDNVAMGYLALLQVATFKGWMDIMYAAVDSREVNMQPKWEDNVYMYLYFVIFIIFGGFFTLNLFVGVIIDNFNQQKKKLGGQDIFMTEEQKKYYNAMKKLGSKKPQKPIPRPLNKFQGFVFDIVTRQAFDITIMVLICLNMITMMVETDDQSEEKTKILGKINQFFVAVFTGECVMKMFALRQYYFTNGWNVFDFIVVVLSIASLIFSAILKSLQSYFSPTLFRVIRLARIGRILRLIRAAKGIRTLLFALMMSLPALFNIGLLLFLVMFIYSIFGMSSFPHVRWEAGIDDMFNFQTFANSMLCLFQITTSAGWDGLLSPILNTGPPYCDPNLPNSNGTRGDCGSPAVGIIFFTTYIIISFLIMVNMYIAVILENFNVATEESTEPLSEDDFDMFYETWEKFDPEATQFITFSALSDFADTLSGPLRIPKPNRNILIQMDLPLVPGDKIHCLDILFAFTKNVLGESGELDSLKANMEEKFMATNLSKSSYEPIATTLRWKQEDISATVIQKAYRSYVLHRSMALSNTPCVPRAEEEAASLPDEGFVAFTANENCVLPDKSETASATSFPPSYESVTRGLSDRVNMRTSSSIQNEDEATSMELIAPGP

On to `Cc1ccc2c(N3CCN(C(=O)[C@H](O)CC(C)C)CC3)nc(-c3cc(F)ccc3O)nc2c1` [Example 136, (R)-1-(4-(2-(5-Fluoro-2-hydroxyphenyl)-7-methylquinazolin-4-yl)piperazin-1-yl)-2-hydroxy-4-methylpentan-1-one], for which the IC50 (in general, the concentration needed to halve the response being measured) is greater than 10 µM.
Regarding `Cc1ccc2c(N3CCN(C(=O)C(=O)C(C)C)CC3)nc(-c3ccccc3O)nc2c1` [Example 186], the IC50 is less than 2 µM.
Under `C[C@@H](O)CC(=O)N1CCN(c2nc(-c3ccccc3O)nc3ccccc23)CC1` [Example 173, (R)-3-Hydroxy-1-(4-(2-(2-hydroxyphenyl)quinazolin-4-yl)piperazin-1-yl)butan-1-one] stands greater than 10 µM; under `CC(C)COC(=O)NC[C@@H]1CCN(c2nc(-c3ccccc3O)nc3ccc(F)cc23)C1` [Example 376, Isobutyl ((S)-1-(6-fluoro-2-(2-hydroxyphenyl)quinazolin-4-yl)pyrrolidin-3-yl)methylcarbamate], greater than 10 µM.
As for `Cc1ccc2c(N3CCN(C(=O)OCc4cccnc4)CC3)nc(-c3ccccc3O)nc2c1` [Example 132, (Pyridin-3-yl)methyl 4-(2-(2-hydroxyphenyl)-7-methylquinazolin-4-yl)piperazine-1-carboxylate], the concentration for half-maximal inhibition (IC50) lay within 2 to 10 µM.
For `Cc1ccc2c(N3CC[C@@H](NC(=O)[C@H](O)CC(C)(C)C)C3)nc(-c3ccccc3O)nc2c1` [Example 361, (2R)-2-Hydroxy-N—((R)-1-(2-(2-Hydroxyphenyl)-7-methylquinazolin-4-yl)pyrrolidin-3-yl)-4,4-dimethylpentanamide] the value was 2 to 10 µM; for `Cc1ccc2c(N3CC[C@@H](NC(=O)C4CCC(=O)N4)C3)nc(-c3ccccc3O)nc2c1` (stereo partly drawn) [Example 315, (R)-5-Oxo-pyrrolidine-2-carboxylic acid {1-[2-(2-hydroxy-phenyl)-7-methyl-quinazolin-4-yl]-pyrrolidin-3-yl}-amide], greater than 10 µM; for `Cc1ccc2c(N3CCCC(C(=O)NCC4CCCO4)C3)nc(-c3ccccc3O)nc2c1` (stereo not drawn) [Example 230, N-((Tetrahydrofuran-2-yl)methyl)-1-(2-(2-hydroxyphenyl)-7-methylquinazolin-4-yl)piperidine-3-carboxamide], 2 to 10 µM.
For `CCCCC(O)C(=O)NC1CCN(c2nc(-c3ccccc3O)nc3cc(C)ccc23)CC1` (stereo not drawn) [Example 245, 2-Hydroxy-N-(1-(2-(2-hydroxyphenyl)-7-methylquinazolin-4-yl)piperidin-4-yl)hexanamide] the value was greater than 10 µM.
For `COCCOC(=O)NC1CCN(c2nc(-c3ccccc3O)nc3ccc(F)cc23)CC1` [Example 258, 2-Methoxyethyl 1-(6-fluoro-2-(2-hydroxyphenyl)quinazolin-4-yl)piperidin-4-ylcarbamate] the value was less than 2 µM; for `Cc1ccc2c(N3CCC(C(=O)NCC4CCCO4)CC3)nc(-c3ccccc3O)nc2c1` (stereo not drawn) [Example 271], greater than 10 µM; for `CC(O)(C(=O)NC1CCN(c2nc(-c3ccccc3O)nc3ccccc23)CC1)C(F)(F)F` (stereo not drawn) [Example 239, 2-(Trifluoromethyl)-2-hydroxy-N-(1-(2-(2-hydroxyphenyl)quinazolin-4-yl)piperidin-4-yl)propanamide], greater than 10 µM.
For the compound `Cc1ccc2c(N3CC[C@H](CNC(=O)O[C@H]4CCOC4)C3)nc(-c3ccccc3O)nc2c1` [Example 307, (S)-Tetrahydrofuran-3-yl ((R)-1-(2-(2-hydroxyphenyl)-7-methylquinazolin-4-yl)pyrrolidin-3-yl)methylcarbamate], the IC50 was greater than 10 µM.
For `CC(C)C[C@@H](O)C(=O)N1CCN(c2nc(-c3ccccc3O)nc3ccc(F)cc23)CC1` [Example 143, (R)-1-(4-(6-Fluoro-2-(2-hydroxyphenyl)quinazolin-4-yl)piperazin-1-yl)-2-hydroxy-4-methylpentan-1-one] the value was 2 to 10 µM.
Take `CC(C)(O)C(=O)NC1CCN(c2nc(-c3ccccc3O)nc3ccccc23)CC1` [Example 235, 2-Hydroxy-N-(1-(2-(2-hydroxyphenyl)quinazolin-4-yl)piperidin-4-yl)-2-methylpropanamide]: the IC50 fell in the range of 2 to 10 µM.
